Test results as given in ChEMBL document CHEMBL4033665, “Synthesis and applications of benzohydroxamic acid-based histone deacetylase inhibitors” (Eur J Med Chem, 2017).
pIC50: −log10 of the molar value.

Experiments:
Histone deacetylase 5 [1] = molecular target: T1, Histone deacetylase 5 (Homo sapiens, UniProt Q9UQL6); assay: Inhibition of human HDAC5 using RHKKAc as substrate by fluorescence assay
Histone deacetylase 8 [2] = molecular target: T2, Histone deacetylase 8 (Homo sapiens, UniProt Q9BY41); assay: Inhibition of human HDAC8 using RHKKAc as substrate by fluorescence assay
T2 sequence (Q9BY41 whole entry): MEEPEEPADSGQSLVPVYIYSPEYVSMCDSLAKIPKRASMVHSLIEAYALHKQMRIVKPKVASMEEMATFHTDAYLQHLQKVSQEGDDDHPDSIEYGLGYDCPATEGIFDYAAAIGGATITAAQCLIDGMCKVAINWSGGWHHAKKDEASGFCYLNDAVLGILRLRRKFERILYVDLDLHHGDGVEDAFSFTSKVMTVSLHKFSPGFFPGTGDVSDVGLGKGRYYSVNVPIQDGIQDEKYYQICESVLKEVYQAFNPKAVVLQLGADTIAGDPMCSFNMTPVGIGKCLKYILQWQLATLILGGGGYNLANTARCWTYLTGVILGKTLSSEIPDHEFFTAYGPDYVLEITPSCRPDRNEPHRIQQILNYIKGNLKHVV

Histone deacetylase 4 [3] = molecular target: T3, Histone deacetylase 4 (Homo sapiens, UniProt P56524); assay: Inhibition of human HDAC4 using RHKKAc as substrate by fluorescence assay
T3 sequence (P56524 whole entry): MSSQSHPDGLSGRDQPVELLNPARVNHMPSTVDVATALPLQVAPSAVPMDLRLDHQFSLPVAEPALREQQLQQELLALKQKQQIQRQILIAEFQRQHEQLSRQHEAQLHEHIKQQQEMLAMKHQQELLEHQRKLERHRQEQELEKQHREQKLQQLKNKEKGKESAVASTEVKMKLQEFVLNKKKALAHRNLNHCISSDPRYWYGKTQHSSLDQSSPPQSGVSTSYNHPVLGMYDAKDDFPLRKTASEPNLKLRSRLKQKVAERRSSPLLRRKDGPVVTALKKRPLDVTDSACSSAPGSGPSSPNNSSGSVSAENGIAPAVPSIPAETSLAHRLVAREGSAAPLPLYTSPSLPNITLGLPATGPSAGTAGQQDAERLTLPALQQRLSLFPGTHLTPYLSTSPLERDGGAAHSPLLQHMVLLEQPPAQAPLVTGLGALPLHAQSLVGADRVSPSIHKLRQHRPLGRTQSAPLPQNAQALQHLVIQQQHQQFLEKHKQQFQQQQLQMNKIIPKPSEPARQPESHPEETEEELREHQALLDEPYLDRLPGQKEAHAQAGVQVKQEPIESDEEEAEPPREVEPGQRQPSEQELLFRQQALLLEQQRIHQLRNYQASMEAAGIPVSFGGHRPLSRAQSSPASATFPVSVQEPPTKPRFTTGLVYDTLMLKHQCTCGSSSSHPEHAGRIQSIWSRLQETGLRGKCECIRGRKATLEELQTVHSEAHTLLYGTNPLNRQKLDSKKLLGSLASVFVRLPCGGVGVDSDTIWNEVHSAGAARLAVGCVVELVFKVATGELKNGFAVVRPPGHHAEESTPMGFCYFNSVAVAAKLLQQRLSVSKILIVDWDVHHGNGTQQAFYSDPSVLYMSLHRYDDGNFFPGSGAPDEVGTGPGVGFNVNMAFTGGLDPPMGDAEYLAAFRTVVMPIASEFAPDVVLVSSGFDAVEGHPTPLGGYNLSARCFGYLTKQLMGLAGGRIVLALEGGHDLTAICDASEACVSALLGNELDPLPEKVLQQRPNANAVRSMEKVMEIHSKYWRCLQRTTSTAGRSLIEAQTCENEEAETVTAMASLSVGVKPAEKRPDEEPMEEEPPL

[4] = molecular target: T4, Polyamine deacetylase HDAC10 (Homo sapiens, UniProt Q969S8); assay: Inhibition of human HDAC10 using RHKKAc as substrate by fluorescence assay
T4 sequence (Q969S8 whole entry): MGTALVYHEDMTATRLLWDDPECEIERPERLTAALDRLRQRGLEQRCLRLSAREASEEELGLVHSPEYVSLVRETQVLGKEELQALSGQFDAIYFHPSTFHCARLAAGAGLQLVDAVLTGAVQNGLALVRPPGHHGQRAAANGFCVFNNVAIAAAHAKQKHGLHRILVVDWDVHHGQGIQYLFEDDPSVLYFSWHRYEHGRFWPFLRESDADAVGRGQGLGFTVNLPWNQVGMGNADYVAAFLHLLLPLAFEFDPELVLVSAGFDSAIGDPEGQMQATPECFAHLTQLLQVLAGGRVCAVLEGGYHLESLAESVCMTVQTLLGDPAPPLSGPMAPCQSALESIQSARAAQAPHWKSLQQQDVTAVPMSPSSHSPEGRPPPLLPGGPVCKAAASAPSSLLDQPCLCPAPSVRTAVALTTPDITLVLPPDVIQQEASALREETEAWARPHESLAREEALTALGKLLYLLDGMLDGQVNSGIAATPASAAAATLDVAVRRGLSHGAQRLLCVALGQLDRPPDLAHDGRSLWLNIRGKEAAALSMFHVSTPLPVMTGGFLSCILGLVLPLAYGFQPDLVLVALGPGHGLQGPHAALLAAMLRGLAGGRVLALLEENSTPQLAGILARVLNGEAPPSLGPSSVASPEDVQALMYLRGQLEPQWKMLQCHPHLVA

[5] = molecular target: T5, Protein deacetylase HDAC6 (Homo sapiens, UniProt Q9UBN7); assay: Inhibition of human HDAC6 using RHKKAc as substrate by fluorescence assay
T5 sequence (Q9UBN7 whole entry): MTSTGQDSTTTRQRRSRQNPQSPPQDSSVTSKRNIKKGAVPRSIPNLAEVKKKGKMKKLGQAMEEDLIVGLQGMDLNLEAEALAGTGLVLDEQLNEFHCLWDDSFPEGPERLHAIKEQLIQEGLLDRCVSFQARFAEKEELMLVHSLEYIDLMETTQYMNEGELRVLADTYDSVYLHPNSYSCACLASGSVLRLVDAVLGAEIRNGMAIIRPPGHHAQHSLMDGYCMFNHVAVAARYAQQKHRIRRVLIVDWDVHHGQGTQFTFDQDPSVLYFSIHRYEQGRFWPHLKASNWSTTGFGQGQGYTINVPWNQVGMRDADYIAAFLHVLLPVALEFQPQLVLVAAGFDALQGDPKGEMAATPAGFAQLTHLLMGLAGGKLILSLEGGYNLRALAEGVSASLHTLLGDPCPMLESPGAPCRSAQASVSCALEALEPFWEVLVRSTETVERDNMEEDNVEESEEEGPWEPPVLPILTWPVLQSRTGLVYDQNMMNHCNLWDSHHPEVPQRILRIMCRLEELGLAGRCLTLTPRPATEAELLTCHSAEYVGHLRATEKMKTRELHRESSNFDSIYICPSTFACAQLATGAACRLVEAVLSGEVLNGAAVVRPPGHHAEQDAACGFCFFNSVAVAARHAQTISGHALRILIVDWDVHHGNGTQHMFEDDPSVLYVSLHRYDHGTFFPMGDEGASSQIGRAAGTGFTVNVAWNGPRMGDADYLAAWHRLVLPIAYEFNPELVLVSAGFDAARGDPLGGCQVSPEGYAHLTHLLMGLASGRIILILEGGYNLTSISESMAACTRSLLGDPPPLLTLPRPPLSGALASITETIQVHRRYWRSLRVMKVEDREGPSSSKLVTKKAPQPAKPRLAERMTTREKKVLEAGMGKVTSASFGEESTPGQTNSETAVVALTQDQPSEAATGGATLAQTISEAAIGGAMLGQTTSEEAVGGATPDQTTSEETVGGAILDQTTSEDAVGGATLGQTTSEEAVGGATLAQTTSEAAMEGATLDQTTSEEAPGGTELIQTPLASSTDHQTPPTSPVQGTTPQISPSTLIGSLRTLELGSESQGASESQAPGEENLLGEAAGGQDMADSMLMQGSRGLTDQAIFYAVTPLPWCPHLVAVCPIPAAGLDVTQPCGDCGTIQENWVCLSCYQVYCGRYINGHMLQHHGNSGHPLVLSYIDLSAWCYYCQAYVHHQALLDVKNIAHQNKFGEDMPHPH

Histone deacetylase 2 [6] = molecular target: T6, Histone deacetylase 2 (Homo sapiens, UniProt Q92769); assay: Inhibition of human HDAC2 using RHKKAc as substrate by fluorescence assay
T6 sequence (Q92769 whole entry): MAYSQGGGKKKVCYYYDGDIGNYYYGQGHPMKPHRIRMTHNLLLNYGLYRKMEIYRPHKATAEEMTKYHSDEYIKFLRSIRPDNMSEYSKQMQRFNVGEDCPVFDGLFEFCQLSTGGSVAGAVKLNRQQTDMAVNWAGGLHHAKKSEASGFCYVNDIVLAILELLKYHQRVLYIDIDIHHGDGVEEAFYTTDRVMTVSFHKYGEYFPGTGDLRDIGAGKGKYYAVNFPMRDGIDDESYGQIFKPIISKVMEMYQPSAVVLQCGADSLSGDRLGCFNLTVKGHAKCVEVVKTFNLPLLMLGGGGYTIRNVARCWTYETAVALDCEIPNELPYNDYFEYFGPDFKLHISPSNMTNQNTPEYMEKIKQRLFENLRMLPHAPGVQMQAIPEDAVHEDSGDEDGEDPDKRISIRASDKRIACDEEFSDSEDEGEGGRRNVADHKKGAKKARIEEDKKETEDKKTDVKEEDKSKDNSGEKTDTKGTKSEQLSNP

Histone deacetylase 1 [7] = molecular target: T7, Histone deacetylase 1 (Homo sapiens, UniProt Q13547); assay: Inhibition of human HDAC1 using RHKKAc as substrate by fluorescence assay
T7 sequence (Q13547 whole entry): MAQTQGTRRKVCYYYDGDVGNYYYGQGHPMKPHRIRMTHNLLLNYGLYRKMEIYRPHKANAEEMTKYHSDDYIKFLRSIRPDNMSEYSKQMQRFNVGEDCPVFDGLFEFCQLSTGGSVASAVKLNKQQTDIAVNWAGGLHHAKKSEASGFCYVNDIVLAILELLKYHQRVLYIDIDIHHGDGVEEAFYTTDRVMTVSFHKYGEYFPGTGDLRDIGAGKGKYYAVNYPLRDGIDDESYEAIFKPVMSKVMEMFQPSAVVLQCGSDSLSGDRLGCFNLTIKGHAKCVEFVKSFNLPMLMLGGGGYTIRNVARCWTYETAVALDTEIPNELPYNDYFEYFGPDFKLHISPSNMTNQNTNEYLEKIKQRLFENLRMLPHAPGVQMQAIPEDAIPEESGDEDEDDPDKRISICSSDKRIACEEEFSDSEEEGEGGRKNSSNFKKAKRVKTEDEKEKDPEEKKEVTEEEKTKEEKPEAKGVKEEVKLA

Histone deacetylase 3 [8] = molecular target: T8, Histone deacetylase 3 (Homo sapiens, UniProt O15379); assay: Inhibition of C-terminal His-tagged full length human HDAC3 expressed in baculovirus expression system using AMC-labeled RHKKAc as substrate after 2 hrs by fluorescence assay
T8 sequence (O15379 whole entry): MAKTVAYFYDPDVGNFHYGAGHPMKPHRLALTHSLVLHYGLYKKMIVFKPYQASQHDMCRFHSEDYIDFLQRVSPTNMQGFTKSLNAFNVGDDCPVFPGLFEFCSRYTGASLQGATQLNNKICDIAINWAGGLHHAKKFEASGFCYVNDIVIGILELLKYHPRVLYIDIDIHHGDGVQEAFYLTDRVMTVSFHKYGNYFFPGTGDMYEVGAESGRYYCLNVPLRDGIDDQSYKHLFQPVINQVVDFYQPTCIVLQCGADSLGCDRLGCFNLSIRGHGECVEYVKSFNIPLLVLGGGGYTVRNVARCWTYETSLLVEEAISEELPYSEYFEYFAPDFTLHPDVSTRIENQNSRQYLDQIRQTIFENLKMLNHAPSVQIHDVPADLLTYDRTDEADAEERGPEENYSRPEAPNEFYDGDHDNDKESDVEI

[9] = molecular target: T5, Protein deacetylase HDAC6; assay: Inhibition of N-terminal GST-tagged full length human HDAC6 expressed in baculovirus expression system in Sf9 cells using AMC-labeled RHKKAc as substrate after 2 hrs by fluorescence assay
Histone deacetylase 1 [10] = molecular target: T7, Histone deacetylase 1; assay: Inhibition of C-terminal GST-tagged full length human HDAC1 expressed in baculovirus expression system in Sf9 cells using AMC-labeled RHKKAc as substrate after 2 hrs by fluorescence assay
Histone deacetylase 2 [11] = molecular target: T6, Histone deacetylase 2; assay: Inhibition of human HDAC2 after 15 mins by trypsin-coupled fluorescence assay
Histone deacetylase 8 [12] = molecular target: T2, Histone deacetylase 8; assay: Inhibition of HDAC8 (unknown origin) by fluorescence assay
Histone deacetylase 2 [13] = molecular target: T6, Histone deacetylase 2; assay: Inhibition of HDAC2 (unknown origin) by fluorescence assay
Histone deacetylase 4 [14] = molecular target: T3, Histone deacetylase 4; assay: Inhibition of HDAC4 (unknown origin) by fluorescence assay
[15] = Inhibition of HDAC activity in human HeLa nuclear extract
Histone deacetylase 1 [16] = molecular target: T7, Histone deacetylase 1; assay: Inhibition of HDAC1 (unknown origin) by fluorescence assay
[17] = molecular target: T5, Protein deacetylase HDAC6; assay: Inhibition of HDAC6 (unknown origin) by fluorescence assay
Histone deacetylase 3 [18] = molecular target: T8, Histone deacetylase 3; assay: Inhibition of HDAC3 (unknown origin) by fluorescence assay
Histone deacetylase 4 [19] = molecular target: T3, Histone deacetylase 4; assay: Inhibition of HDAC4 (unknown origin)
Histone deacetylase 2 [20] = molecular target: T6, Histone deacetylase 2; assay: Inhibition of HDAC2 (unknown origin)
Histone deacetylase 5 [21] = molecular target: T1, Histone deacetylase 5; assay: Inhibition of HDAC5 (unknown origin)
Histone deacetylase 3 [22] = molecular target: T8, Histone deacetylase 3; assay: Inhibition of HDAC3 (unknown origin)
[23] = molecular target: T4, Polyamine deacetylase HDAC10; assay: Inhibition of HDAC10 (unknown origin)
Histone deacetylase 1 [24] = molecular target: T7, Histone deacetylase 1; assay: Inhibition of HDAC1 (unknown origin)
Histone deacetylase 9 = Histone deacetylase 9 (Homo sapiens, UniProt Q9UKV0); assay: Inhibition of HDAC9 (unknown origin)
Histone deacetylase 9, sequence (Q9UKV0 whole entry): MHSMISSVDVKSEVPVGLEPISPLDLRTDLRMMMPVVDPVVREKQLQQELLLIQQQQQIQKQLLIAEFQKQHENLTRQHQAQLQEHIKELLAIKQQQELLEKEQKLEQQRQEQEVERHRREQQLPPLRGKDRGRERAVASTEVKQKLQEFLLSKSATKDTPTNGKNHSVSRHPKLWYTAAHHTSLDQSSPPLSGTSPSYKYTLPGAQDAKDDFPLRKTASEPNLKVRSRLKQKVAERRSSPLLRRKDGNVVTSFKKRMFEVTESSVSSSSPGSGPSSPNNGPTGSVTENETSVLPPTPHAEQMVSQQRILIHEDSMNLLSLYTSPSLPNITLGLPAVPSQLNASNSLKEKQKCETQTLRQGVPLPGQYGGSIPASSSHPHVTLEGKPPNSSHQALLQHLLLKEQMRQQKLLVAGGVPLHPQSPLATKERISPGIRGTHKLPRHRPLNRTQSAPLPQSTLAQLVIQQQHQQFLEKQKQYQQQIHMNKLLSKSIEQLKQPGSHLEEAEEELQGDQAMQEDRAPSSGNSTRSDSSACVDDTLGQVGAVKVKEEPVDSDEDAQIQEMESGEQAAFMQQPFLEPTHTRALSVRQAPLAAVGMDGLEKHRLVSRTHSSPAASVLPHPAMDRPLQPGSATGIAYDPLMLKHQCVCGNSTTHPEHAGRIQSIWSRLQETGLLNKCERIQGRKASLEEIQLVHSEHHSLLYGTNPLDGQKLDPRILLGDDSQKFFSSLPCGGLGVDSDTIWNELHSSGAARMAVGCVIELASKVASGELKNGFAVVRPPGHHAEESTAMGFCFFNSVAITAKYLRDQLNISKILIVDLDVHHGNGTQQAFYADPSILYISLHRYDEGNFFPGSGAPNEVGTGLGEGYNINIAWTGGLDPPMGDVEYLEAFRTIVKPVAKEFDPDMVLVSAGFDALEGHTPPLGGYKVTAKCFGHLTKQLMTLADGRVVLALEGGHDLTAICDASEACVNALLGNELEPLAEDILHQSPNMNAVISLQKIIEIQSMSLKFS

Histone deacetylase 8 [25] = molecular target: T2, Histone deacetylase 8; assay: Inhibition of HDAC8 (unknown origin)
Histone deacetylase 11 = molecular target: T9, Histone deacetylase 11 (Homo sapiens, UniProt Q96DB2); assay: Inhibition of HDAC11 (unknown origin)
T9 sequence (Q96DB2 whole entry): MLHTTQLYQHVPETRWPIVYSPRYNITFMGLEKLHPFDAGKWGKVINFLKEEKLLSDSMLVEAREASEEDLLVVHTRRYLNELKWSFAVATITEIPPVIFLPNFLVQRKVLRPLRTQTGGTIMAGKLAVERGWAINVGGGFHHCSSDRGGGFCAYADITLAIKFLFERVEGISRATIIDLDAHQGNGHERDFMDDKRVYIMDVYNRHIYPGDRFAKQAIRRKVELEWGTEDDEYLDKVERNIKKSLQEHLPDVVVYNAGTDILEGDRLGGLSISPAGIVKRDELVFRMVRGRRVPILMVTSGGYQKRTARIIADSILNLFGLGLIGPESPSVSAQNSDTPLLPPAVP

[26] = molecular target: T5, Protein deacetylase HDAC6; assay: Inhibition of HDAC6 (unknown origin)
[27] = molecular target: T5, Protein deacetylase HDAC6; assay: Inhibition of recombinant human HDAC6 using Boc-Lys(acetyl)-AMC as substrate after 1 hr by fluorescence assay
Histone deacetylase 8 [28] = molecular target: T2, Histone deacetylase 8; assay: Inhibition of human HDAC8 using ZMTFAL as substrate after 90 mins by fluorescence assay
[29] = molecular target: T10, Protein deacetylase HDAC6 (Homo sapiens) (UniProt Q9UBN7); assay: Inhibition of human HDAC6 at 100 uM after 90 mins by fluorescence assay
T10 sequence (whole entry): T5 sequence (Q9UBN7 whole entry)

Histone deacetylase 1 [30] = molecular target: T7, Histone deacetylase 1; assay: Inhibition of human HDAC1 using MAL as substrate at 100 uM after 90 mins by fluorescence assay

T1 sequence (Q9UQL6 whole entry): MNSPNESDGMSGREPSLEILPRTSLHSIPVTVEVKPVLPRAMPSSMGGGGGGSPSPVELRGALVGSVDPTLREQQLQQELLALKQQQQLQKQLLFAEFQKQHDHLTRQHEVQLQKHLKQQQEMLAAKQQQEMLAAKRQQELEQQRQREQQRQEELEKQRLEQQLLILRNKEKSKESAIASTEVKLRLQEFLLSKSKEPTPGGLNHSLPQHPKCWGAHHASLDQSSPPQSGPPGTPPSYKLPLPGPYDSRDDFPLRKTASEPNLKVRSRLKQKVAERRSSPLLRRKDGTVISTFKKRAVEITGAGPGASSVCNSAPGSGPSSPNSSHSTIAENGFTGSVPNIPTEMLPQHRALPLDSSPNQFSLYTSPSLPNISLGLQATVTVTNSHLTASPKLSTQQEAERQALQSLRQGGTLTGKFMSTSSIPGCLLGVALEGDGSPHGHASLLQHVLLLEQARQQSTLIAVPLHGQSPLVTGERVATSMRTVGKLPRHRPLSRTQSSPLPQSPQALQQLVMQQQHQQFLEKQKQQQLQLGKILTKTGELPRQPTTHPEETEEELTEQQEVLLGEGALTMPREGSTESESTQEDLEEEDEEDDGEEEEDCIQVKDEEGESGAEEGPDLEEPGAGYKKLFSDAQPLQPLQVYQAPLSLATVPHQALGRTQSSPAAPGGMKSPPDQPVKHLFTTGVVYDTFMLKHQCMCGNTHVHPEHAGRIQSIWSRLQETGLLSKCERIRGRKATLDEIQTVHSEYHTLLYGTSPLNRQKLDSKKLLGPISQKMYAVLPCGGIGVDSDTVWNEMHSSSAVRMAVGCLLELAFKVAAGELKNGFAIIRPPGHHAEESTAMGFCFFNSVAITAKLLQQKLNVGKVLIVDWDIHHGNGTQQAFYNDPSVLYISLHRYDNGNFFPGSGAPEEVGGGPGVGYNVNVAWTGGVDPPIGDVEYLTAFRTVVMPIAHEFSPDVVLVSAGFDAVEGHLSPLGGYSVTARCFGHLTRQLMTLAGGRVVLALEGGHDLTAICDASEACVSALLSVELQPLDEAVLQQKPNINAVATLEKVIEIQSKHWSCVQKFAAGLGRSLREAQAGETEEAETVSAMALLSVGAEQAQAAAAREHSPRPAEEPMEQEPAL

## CN1C(=O)C2CN(Cc3c2c2ccccc2n3Cc2ccc(C(=O)NO)cc2)C1=O (configuration not stated)
Histone deacetylase 5 [1]
  pIC50: 5.80
Histone deacetylase 8 [2]
  pIC50: 6.60
Histone deacetylase 4 [3]
  pIC50: 5.42
[4]
  pIC50: 4.98
[5]
  pIC50: 8.40
Histone deacetylase 2 [6]
  pIC50: 5.13
Histone deacetylase 1 [7]
  pIC50: 5.44

## COc1ccc(-c2cc(-c3ccoc3)c(C(=O)NCc3ccc(C(=O)NO)cc3)[nH]2)cc1
Histone deacetylase 3 [8]
  pIC50: 7.10
[9]
  pIC50: 8.70
Histone deacetylase 1 [10]
  pIC50: 7.15

## O=C(NO)c1ccc(CC(=O)N(CCO)c2ccccc2)cc1
Histone deacetylase 2 [11]
  pIC50: 5.36

## O=C(NO)c1cccc(-c2csc(CSc3ccccc3)n2)c1
Histone deacetylase 8 [12]
  pIC50: 6.82
Histone deacetylase 2 [13]
  pIC50: < 4.00
Histone deacetylase 4 [14]
  pIC50: < 4.00
[15]
  pIC50: < 4.00
Histone deacetylase 1 [16]
  pIC50: < 4.00
[17]
  pIC50: 4.85
Histone deacetylase 3 [18]
  pIC50: 4.92

## O=C(NO)c1ccc(CN2c3ccccc3S(=O)(=O)C[C@H]3CCCC[C@H]32)cc1
Histone deacetylase 4 [19]
  pIC50: < 4.52
Histone deacetylase 2 [20]
  pIC50: 4.62
Histone deacetylase 5 [21]
  pIC50: 5.04
Histone deacetylase 3 [22]
  pIC50: 4.62
[23]
  pIC50: 5.00
Histone deacetylase 1 [24]
  pIC50: 5.09
Histone deacetylase 9
  pIC50: 4.89
Histone deacetylase 8 [25]
  pIC50: 5.96
Histone deacetylase 11
  pIC50: 5.62
[26]
  pIC50: 8.10

## O=C(Cc1ccc(C(=O)NO)cc1)NC1=CC(=O)c2ccccc2C1=O
[27]
  pIC50: 8.22

## O=C1Nc2ccccc2/C1=N/NC(=S)Nc1ccc(C(=O)NO)cc1
Histone deacetylase 8 [28]
  pIC50: 4.80
[29]
  inhibition: 41%
Histone deacetylase 1 [30]
  inhibition: < 10%
